Seven compounds from US20210330611A1, “THERAPY FOR NEUROLOGICAL DISEASES/DISORDERS” (priority 2020, published 2021) can be followed below.

Counter-ions that a name gives are not always drawn. Like-named read-outs stand apart in the source and are kept apart here. Some results are limits rather than exact numbers.

A short description of series [1]: in vitro. The note with it: rat, Cell Toxicity IC50 (uM) [cFib assay].
The test system of series [2] is primary rat microglia. The series can be described thus: Cell toxicity (dead cells, size <150 μm2) in LPS assay. The note with it: for LPS % cell toxicity: primary microglia HTS, LPS stimulation, decreased size (<150 μm^2) as marker of toxicity; for IC50: read-out: Cell Toxicity IC50 (uM) [LPS assay], LPS assay.
The subject of series [3] is fibrin- and LPS-induced microglia activation. The series can be described thus: cells. The format is cell-based, rat. The note with it: for inhibition at 10 µM: Rattus norvegicus.
Series [4] relates to fibrin-induced microglia activation. Kind of series: Image-based assay of fibrin-induced microglia activation (HTS and dose response). The note with it: for IC50 / inhibition at 10 µM: Rattus norvegicus, Microglia; for inhibition at 10 µM: primary microglia HTS, read-out: Fibrin % inhibition. Format: cell-based, rat.
The subject of series [5] is LPS-induced microglia activation. Kind of series: Image-based assay of LPS-induced microglia activation (HTS and dose response). The note with it: Rattus norvegicus, Microglia; for inhibition at 10 µM: primary microglia HTS, read-out: LPS % inhibition. The format is cell-based, rat.
For series [6], the system named is primary rat microglia. The series can be described thus: Cell toxicity (dead cells, size <150 μm2) in coated fibrin (cFib) assay.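 On Fibrin % cell toxicity: share of dead cells sized under 150 µm2 at 10 µM in fibrin-stimulated microglia HTS.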 The note with it: primary microglia HTS, fibrin stimulation; decreased size (<150 μm^2) as marker of toxicity.
Series [7] can be described thus: in vitro. The note with it: rat.
The mark [8] stands for this setting: HTS of 1907 compounds, quadrant by fibrin and LPS inhibition.
Where [9] appears, read: Microglia, HTS hit classification, read-out: Hit.
Setting [10] is: hit classification in microglia HTS, read-out: Cherry-picked Hit (Suppl. Table 7).
[11] abbreviates: quadrant by fibrin and LPS inhibition in HTS of 1907 compounds.
Setting [12] is: 48 h, Table 1, dose response 0.001-20 μM, triplicates, primary rat microglia, 48 h, read-out: Fibrin IC50.
The mark [13] stands for this setting: dose response, fibrin-induced microglia activation, read-out: Fibrin IC50.
Setting [14] is: fibrin-induced microglia activation, dose response, read-out: Fibrin IC50 (uM) (Suppl. Table 7).
Setting [15] is: fibrin stimulation, increased cell size (>800 μm^2) as marker of activation.
The mark [16] stands for this setting: 48 h, Table 1, dose response 0.001-20 μM, triplicates, primary rat microglia, 48 h, read-out: LPS IC50.
Setting [17] is: 48 h, LPS stimulation, increased cell size (>800 μm^2) as marker of activation.
Setting [18] is: LPS-induced microglia activation, dose response, read-out: LPS IC50 (uM) (Suppl. Table 7).
[19] abbreviates: dose response, LPS-induced microglia activation, read-out: LPS IC50.
Where [20] appears, read: Microglia, Table 3, read-out: Cherry-picked Hit (Suppl. Table 7).
Where [21] appears, read: Table 3, read-out: Fibrin IC50 (uM) (Suppl. Table 7).
Where [22] appears, read: Table 3, read-out: LPS IC50 (uM) (Suppl. Table 7).

For the compound `CN(C)CCc1c[nH]c2ccc(CS(=O)(=O)N3CCCC3)cc12` [Almotriptan, reference compound], the IC50 (in “in vitro [1]” (cFib assay); in series [4] (setting [12]); in series [4] (setting [13]); in series [4] (setting [14]); in series [5] (setting [16]); in series [5] (setting [18])) was above 20 µM each time. Moreover, the IC50 (in series [5] (setting [19]); in the series “in vitro [7]”) was above 20 µM in each case. For the same compound, the “LPS % cell toxicity” value in the series on primary rat microglia [2] came to 1%. The “Quadrant (FIG. 5b)” value in series [3] (setting [8]) was “Q2”; in series [3] (Table 1, screen at 10 μM), “Q2”; in series [3] (setting [11]), “Q2”. The inhibition at 10 µM was above 50% in series [3] (setting [9]), above 50% in series [3] (setting [10]), 101% in series [4] (setting [15]) and 85% in series [5] (setting [17]). Moreover, the “Fibrin % cell toxicity” value in the series with primary rat microglia [6] is 2%.
Take `O=C(OOC(=O)c1ccccc1)c1ccccc1` [Benzoyl peroxide, reference compound]: the IC50 in “in vitro [1]” (cFib assay) was above 20 µM; in series [4] (setting [12]), 20 µM; in series [4] (setting [13]), 20 µM; in series [4] (setting [14]) it was 20 µM; in series [5] (setting [16]) it was above 20 µM; in series [5] (setting [18]) it was above 20 µM. Moreover, the concentration for half-maximal inhibition (IC50) (in series [5] (setting [19]); in the series “in vitro [7]”) was above 20 µM in each case. Besides, the “LPS % cell toxicity” value with primary rat microglia [2] was 2%. Further, the “Quadrant (FIG. 5b)” value is recorded as “Q2” in series [3] (setting [8]); “Q2” in series [3] (Table 1, screen at 10 μM); “Q2” in series [3] (setting [11]). Besides, the inhibition at 10 µM was above 50% in series [3] (setting [9]), above 50% in series [3] (setting [10]), 75% in series [4] (setting [15]) and 82% in series [5] (setting [17]). Also, the “Fibrin % cell toxicity” value in the series on primary rat microglia [6] came to 1%.
Regarding `CN(C)CCCOc1nn(Cc2ccccc2)c2ccccc12` [Benzydamine hydrochloride, reference compound], the IC50 in “in vitro [1]” (cFib assay) amounted to 20 µM; in series [4] (setting [12]) it was 6 µM; in series [4] (setting [13]) it was 6 µM; in series [4] (setting [14]) it was 6 µM; in series [5] (setting [16]), 3 µM; in series [5] (setting [18]), 3 µM. Besides, the IC50 in series [5] (setting [19]) was 3 µM; in the series “in vitro [7]” it was 8 µM. Besides, the “LPS % cell toxicity” value with primary rat microglia [2] turned out to be 6%. Besides, the “Quadrant (FIG. 5b)” value in series [3] (setting [8]) is reported as “Q2”; in series [3] (Table 1, screen at 10 μM), “Q2”; in series [3] (setting [11]), “Q2”. Moreover, the inhibition at 10 µM in series [3] (setting [9]) was above 50%; in series [3] (setting [10]), above 50%; in series [4] (setting [15]), 75%; in series [5] (setting [17]) it was 102%. Besides, the “Fibrin % cell toxicity” value in the series on primary rat microglia [6] stood at 1%.
Take `S=C=NCc1ccccc1` [Benzyl isothiocyanate, reference compound]: the half-maximal inhibitory concentration (IC50) is above 20 µM in the series “in vitro [1]” (Table 3); above 20 µM in the series “in vitro [1]” (cFib assay); above 20 µM in the series with primary rat microglia [2]; 10 µM in series [4] (setting [12]); 10 µM in series [4] (setting [21]); 10 µM in series [4] (setting [13]). Further, the IC50 in series [4] (setting [14]) was 10 µM; in series [5] (setting [16]), above 20 µM; in series [5] (setting [18]), above 20 µM; in series [5] (setting [22]), above 20 µM; in series [5] (setting [19]), above 20 µM; in “in vitro [7]”, above 20 µM. For the same compound, the “LPS % cell toxicity” value with primary rat microglia [2] is reported as 2%. For the same compound, the “Quadrant (FIG. 5b)” value is “Q2” in series [3] (setting [8]); “Q2” in series [3] (Table 1, screen at 10 μM); “Q2” in series [3] (Table 3, screen at 10 μM); “Q2” in series [3] (setting [11]). Besides, the inhibition at 10 µM in series [3] (setting [20]) was above 50%; in series [3] (setting [9]), above 50%; in series [4] (setting [15]), 77%; in series [5] (setting [17]), 68%. In addition, the “Fibrin Selectivity” value in series [4] worked out at 2. In addition, the “Fibrin Selectivity (LOG10)” value in series [4] came out at 0.29. Also, the “Fibrin % cell toxicity” value in the series on primary rat microglia [6] is 2%.
On to `CCCCC(=O)O[C@]1(C(=O)CO)[C@@H](C)C[C@H]2[C@@H]3CCC4=CC(=O)C=C[C@]4(C)[C@@]3(F)[C@@H](O)C[C@@]21C` [Betamethasone valerate, reference compound], for which the IC50 in the series “in vitro [1]” (cFib assay) is above 20 µM; in series [4] (setting [12]), 20 µM; in series [4] (setting [13]), 20 µM; in series [4] (setting [14]) it was 20 µM; in series [5] (setting [16]) it was above 20 µM; in series [5] (setting [18]) it was above 20 µM. Besides, the IC50 (in series [5] (setting [19]); in the series “in vitro [7]”) was above 20 µM in each case. The “LPS % cell toxicity” value in the series with primary rat microglia [2] was found to be 1%. For the same compound, the “Quadrant (FIG. 5b)” value in series [3] (setting [8]) is “Q2”; in series [3] (Table 1, screen at 10 μM), “Q2”; in series [3] (setting [11]) it was “Q2”. Besides, the inhibition at 10 µM in series [3] (setting [9]) was above 50%; in series [3] (setting [10]) it was above 50%; in series [4] (setting [15]) it was 69%; in series [5] (setting [17]), 55%. Moreover, the “Fibrin % cell toxicity” value in the series on primary rat microglia [6] amounted to 1%.
For `CC[C@@]1(O)C(=O)OCc2c1cc1n(c2=O)Cc2cc3c([N+](=O)[O-])cccc3nc2-1` [Rubitecan, reference compound], the IC50 in “in vitro [1]” (Table 3) is above 20 µM; in “in vitro [1]” (cFib assay) it was above 20 µM; in the series on primary rat microglia [2] it was above 20 µM; in series [4] (setting [12]) it was 2 µM; in series [4] (setting [21]), 2 µM; in series [4] (setting [13]) it was 2 µM. For the same compound, the concentration for half-maximal inhibition (IC50) in series [4] (setting [14]) was 2 µM; in series [5] (setting [16]) it was 9 µM; in series [5] (setting [18]), 9 µM; in series [5] (setting [22]), 9 µM; in series [5] (setting [19]), 9 µM; in “in vitro [7]”, above 20 µM. Further, the “Quadrant (FIG. 5b)” value was “Q3” in series [3] (setting [8]); “Q3” in series [3] (Table 1, screen at 10 μM); “Q3” in series [3] (Table 3, screen at 10 μM); “Q3” in series [3] (setting [11]). Further, the inhibition at 10 µM in series [3] (setting [20]) is above 50%; in series [3] (setting [9]), above 50%; in series [4] (setting [15]), 73%; in series [5] (setting [17]), 30%.
As for `C[C@]12C=CC(=O)C=C1CC[C@H]1[C@@H]3C[C@@H](O)[C@](O)(C(=O)CO)[C@@]3(C)C[C@H](O)[C@@]12F` [Triamcinolone, reference compound], the IC50 in “in vitro [1]” (Table 3) is above 20 µM; in “in vitro [1]” (cFib assay), above 20 µM; in the series with primary rat microglia [2] it was above 20 µM; in series [4] (setting [12]) it was 0.04 µM; in series [4] (setting [21]), 0.04 µM; in series [4] (setting [13]), 0.04 µM. The IC50 in series [4] (setting [14]) is 0.04 µM; in series [5] (setting [16]), 0.4 µM; in series [5] (setting [18]), 0.4 µM; in series [5] (setting [22]), 0.4 µM; in series [5] (setting [19]), 0.4 µM; in “in vitro [7]”, above 20 µM. Besides, the inhibition at 10 µM in series [3] (setting [20]) was above 50%; in series [3] (setting [9]), above 50%; in series [4] (10 μM, fibrin-stimulated, cell size >800 μm^2 as marker of activation) it was -2%; in series [4] (setting [15]), 107%; in series [5] (setting [17]), 99%; in series [5] (10 μM, LPS-stimulated, cell size >800 μm^2 as marker of activation), -14%. In addition, the “Quadrant (FIG. 5b)” value in series [3] (Table 1, screen at 10 μM) is given as “Q2”; in series [3] (Table 3, screen at 10 μM), “Q2”; in series [3] (setting [11]) it was “Q2”. For the same compound, the “Fibrin Selectivity” value in series [4] is listed as 10. Further, in series [4], the “Fibrin Selectivity (LOG10)” value was found to be 1.00.
